Measurements reported in patent US20240209014A1, “NOVEL SPINOSYN PRODRUGS” (Acies Bio d.o.o., priority 2021, published 2024).
Read-outs that look alike come from different tables or passages of the source.

What was measured:
[1] = Stability of J1A, J1B and J7 at different pH values (LC-MS); format: physicochemical
Experimental: Stability of compounds J1A, J1B and J7 was evaluated at different pH values. Differential stability/conversion to the active ingredient is expected to result in condition-specific activation and thereby to higher specificity towards target pests.
Stock solutions of the compounds were prepared at concentration of 0.1 mol/L. 10 μL of the stock solutions were transferred to 0.75 ml of the buffer solutions with pH values of 4, 5, 9 and 11. The resulting solutions were incubated for 10 minutes and 3 and 24 h. After specified times samples were analyzed using LC-MS. The compounds J1A, J1B, J7 and the active compound butenyl spinosyn were quantified. It is seen that the three compounds are converted to the active form preferably in alkaline conditions.

[2] = system: honey bees (Apis melifera carnica, Pollman 1879); assay: Single dose acute oral toxicity test on adult worker honey bees; format: in vivo
Experimental: Toxicity of the compounds of this invention towards honey bees (Apis melifera carnica, Pollman 1879) was assessed in comparison with commercially available samples of spinosad (LGC (Dr. Ehrenstorfer); Product code: DRE-C16972830) and the naturally produced compound butenyl spinosyn alpha 1. Solutions of spinosyn compounds were prepared in 100 mM ammonium acetate, pH=5, and later diluted in 50% (500 g/L) sucrose solution in water to final concentrations. Two final concentrations were used for each compound, 7.76 μmol/L and 15.53 μmol/L.
Single dose acute oral toxicity tests were conducted on adult worker bees according to previously described standard methods (Medrzycki at el., (2013)). Each compound and condition were tested in two parallels. Briefly, each parallel experiment consisted of 5 cages with 20 honey bees per cage. […] After uptake of the solutions honey bees were supplied with standard 50% sucrose solution and observed at 24 h and 48 h and the number of dead and live bees was estimated.
Ammonium acetate solution with pH 5 was used as the negative control.

Kinetic solubility assay = format: physicochemical; conditions: 25 °C, kinetic from dmso stock, dose conc 200 μM, 25±2° C.
Experimental: Solubility of the compounds of the invention was assessed using kinetic solubility assay and compared to solubility of butenyl spinosyn. Stock solutions of spinosyn compounds were prepared in DMSO at mM concentration). 10 uL of the stock solutions were added into 490 of in K.S. 5.4 buffer of pH 5.4 (80 mM phosphoric acid, acetic acid, boric acid buffer, adjusted the pH to pH 5.4 with 1 N HCl and 1N NaOH) or K.S. 7.4 buffer with pH of 7.4 (80 mM phosphoric acid, acetic acid, boric acid buffer, adjusted the pH to pH 7.4 with 1 N HCl and 1N NaOH). The solutions were incubated with shaking at room […] temperature (25±2° C.) for 24 hours. 200 uL of each solution were then transferred into a new MultiScreen filter plate (Membrane of polycarbonate) and filtered by millipore vacuum manifold, and the filtrate was collected. The concentrtions of tested compounds in the filtered samples were analyzed by HPLC analysis calibrated by a standard curve generated by injection of 3 standard solutions of the relevant compound with concentrations of 1, 20, 200 μM.

[3] = system: larvae of Ostrinia nubilialis (development stage L1); assay: Insecticide efficacy, corn leaf dip, Henderson-Tilton method; format: in vivo; conditions: for insecticidal activity on Ostrinia nubilialis larvae (in words): 0.1 and 0.3 μg/mL, leaf dip; for % efficacy (Henderson-Tilton): Ostrinia, foliar
Experimental: Insecticide activities of the compounds of this invention were assessed in comparison with commercially available samples of spinosad (LGC (Dr. Ehrenstorfer); Product code: DRE-C16972830) and spinetoram (LGC (Dr. Ehrenstorfer); Product code: DRE-C16972770). Solutions of spinosyn compounds were prepared by adding 0.05% Tween 80, lowering pH to 5.95 and sonicating. Two concentrations of each compound were used, 0.1 μg/ml and 0.3 μg/mL, with each condition tested in four parallels.
Freshly collected corn leaves were dipped into the prepared solutions. After dipping leaves were left to dry at room temperature for 1 hour. Each dry leaf was then infested with 4 larvae of Ostrinia nubilialis (development stage L1), and the experimental device was incubated at 21° C.-23° C. for 24 h in order to optimize insect development. At three timings post infestation (1 day, 3 days and 6 days), the insecticide efficacy is evaluated from the number of living larvae using the Henderson-Tilton method. Untreated control was integrated for normalization and validation of larvae health.

[4] = single oral dose 0.078 nmol/bee, 24 h after application
[5] = single oral dose 0.078 nmol/bee, 48 h after application
[6] = single oral dose 0.155 nmol/bee, 24 h after application
[7] = single oral dose 0.155 nmol/bee, 48 h after application
[8] = pH 5.4, aqueous buffer, K.S. 5.4 buffer, read-out: Kinetic Solubility pH = 5.4
[9] = pH 7.4, aqueous buffer, K.S. 7.4 buffer, read-out: Kinetic Solubility pH = 7.4
[10] = 24 h, read-out: % Efficacy, dose 0.1 μg a.i./ml, 1 day post infestation
[11] = 24 h, read-out: % Efficacy, dose 0.3 μg a.i./ml, 1 day post infestation
[12] = 72 h, read-out: % Efficacy, dose 0.1 μg a.i./ml, 3 days post infestation
[13] = 72 h, read-out: % Efficacy, dose 0.3 μg a.i./ml, 3 days post infestation
[14] = 144 h, read-out: % Efficacy, dose 0.1 μg a.i./ml, 6 days post infestation
[15] = 144 h, read-out: % Efficacy, dose 0.3 μg a.i./ml, 6 days post infestation

| SMILES | BuSPN Area % (active butenyl spinosyn released) ([1]; buffer pH 4, 0.16 h) [%] | Compound (J1A/J1B/J7) Area % remaining ([1]; buffer pH 4, 0.16 h) [%] | BuSPN Area % (active butenyl spinosyn released) ([1]; buffer pH 4, 3 h) [%] | Compound (J1A/J1B/J7) Area % remaining ([1]; buffer pH 4, 3 h) [%] | BuSPN Area % (active butenyl spinosyn released) ([1]; buffer pH 4, 24 h) [%] | Compound (J1A/J1B/J7) Area % remaining ([1]; buffer pH 4, 24 h) [%] | BuSPN Area % (active butenyl spinosyn released) ([1]; buffer pH 5, 0.16 h) [%] | Compound (J1A/J1B/J7) Area % remaining ([1]; buffer pH 5, 0.16 h) [%] | BuSPN Area % (active butenyl spinosyn released) ([1]; buffer pH 5, 3 h) [%] | Compound (J1A/J1B/J7) Area % remaining ([1]; buffer pH 5, 3 h) [%] | BuSPN Area % (active butenyl spinosyn released) ([1]; buffer pH 5, 24 h) [%] | Compound (J1A/J1B/J7) Area % remaining ([1]; buffer pH 5, 24 h) [%] | BuSPN Area % (active butenyl spinosyn released) ([1]; buffer pH 9, 0.16 h) [%] | Compound (J1A/J1B/J7) Area % remaining ([1]; buffer pH 9, 0.16 h) [%] | BuSPN Area % (active butenyl spinosyn released) ([1]; buffer pH 9, 3 h) [%] | Compound (J1A/J1B/J7) Area % remaining ([1]; buffer pH 9, 3 h) [%] | BuSPN Area % (active butenyl spinosyn released) ([1]; buffer pH 9, 24 h) [%] | Compound (J1A/J1B/J7) Area % remaining ([1]; buffer pH 9, 24 h) [%] | BuSPN Area % (active butenyl spinosyn released) ([1]; buffer pH 11, 0.16 h) [%] | Compound (J1A/J1B/J7) Area % remaining ([1]; buffer pH 11, 0.16 h) [%] | also measured |
| --- | --- | --- | --- | --- | --- | --- | --- | --- | --- | --- | --- | --- | --- | --- | --- | --- | --- | --- | --- | --- | --- |
| CC/C=C/[C@H]1CCC[C@H](OC2CCC([N+](C)(C)COC(=O)OC(C)C)C(C)O2)[C@@H](C)C(=O)C2=C[C@@H]3[C@@H](C=C[C@@H]4C[C@@H](OC5OC(C)C(OC)C(OC)C5OC)C[C@@H]34)[C@@H]2CC(=O)O1 (stereo partly drawn) [Compound J7] | 0.0 | 19.2 | 0.0 | 4.1 | 0.0 | 3.8 | 0.2 | 99.2 | 0.3 | 99.7 | 0.5 | 99.2 | 44.4 | 54.2 | 90.8 | 7.6 | 93.8 | 0.6 | 93.1 | 6.7 | BuSPN Area % (active butenyl spinosyn released) ([1]; buffer pH 11, 3 h): 99.8%; Compound (J1A/J1B/J7) Area % remaining ([1]; buffer pH 11, 3 h): 0.0%; BuSPN Area % (active butenyl spinosyn released) ([1]; buffer pH 11, 24 h): 99.4%; Compound (J1A/J1B/J7) Area % remaining ([1]; buffer pH 11, 24 h): 0.0%; % of surviving honey bees [2, 4]: 96%; % of surviving honey bees [2, 5]: 94%; % of surviving honey bees [2, 6]: 85%; % of surviving honey bees [2, 7]: 63%; solubility kinetic at 24 h (Kinetic solubility assay; [8]): 192 µM; solubility kinetic at 24 h (Kinetic solubility assay; [9]): 145 µM; insecticidal activity on Ostrinia nubilialis larvae (in words) [3]: extremely potent insecticidal activity; % efficacy (Henderson-Tilton) [3, 10]: 31%; % efficacy (Henderson-Tilton) [3, 11]: 44%; % efficacy (Henderson-Tilton) [3, 12]: 73%; % efficacy (Henderson-Tilton) [3, 13]: 91%; % efficacy (Henderson-Tilton) [3, 14]: 91%; % efficacy (Henderson-Tilton) [3, 15]: 100% |
| CC/C=C/[C@H]1CCC[C@H](OC2CCC([N+](C)(C)COC(=O)C(C)(C)C)C(C)O2)[C@@H](C)C(=O)C2=C[C@@H]3[C@@H](C=C[C@@H]4C[C@@H](OC5OC(C)C(OC)C(OC)C5OC)C[C@@H]34)[C@@H]2CC(=O)O1 (stereo partly drawn) [Compound J1A] | 0.0 | 5.7 | 0.0 | 2.0 | 0.0 | 0.1 | 0.1 | 99.4 | 0.1 | 99.3 | 1.7 | 97.4 | 32.6 | 66.4 | 71.8 | 26.6 | 46.6 | 0.0 | 80.7 | 18.4 | BuSPN Area % (active butenyl spinosyn released) ([1]; buffer pH 11, 3 h): 98.0%; Compound (J1A/J1B/J7) Area % remaining ([1]; buffer pH 11, 3 h): 0.5%; % of surviving honey bees [2, 4]: 95%; % of surviving honey bees [2, 5]: 92%; % of surviving honey bees [2, 6]: 89%; % of surviving honey bees [2, 7]: 75%; solubility kinetic at 24 h (Kinetic solubility assay; [8]): 189 µM; solubility kinetic at 24 h (Kinetic solubility assay; [9]): 143 µM; insecticidal activity on Ostrinia nubilialis larvae (in words) [3]: extremely potent insecticidal activity; % efficacy (Henderson-Tilton) [3, 10]: 2%; % efficacy (Henderson-Tilton) [3, 11]: 0%; % efficacy (Henderson-Tilton) [3, 12]: 44%; % efficacy (Henderson-Tilton) [3, 13]: 63%; % efficacy (Henderson-Tilton) [3, 14]: 89%; % efficacy (Henderson-Tilton) [3, 15]: 100% |
